Assay results from ChEMBL document CHEMBL5620348, “3-Hydroxy-pyridin-4(1H)-ones as siderophores mediated delivery of isobavachalcone enhances antibacterial activity against pathogenic Pseudomonas aeruginosa” (Eur J Med Chem, 2023).
The source made the active and inactive calls. No cut-off for these calls is given here.

Legend:
[1] = test system: Pseudomonas aeruginosa; test: Antibacterial activity against multi-drug resistant Pseudomonas aeruginosa clinical isolate 1121 assessed as inhibition of bacterial growth by measuring minimum inhibitory concentration incubated for 18 to 20 hrs in presence of M9 medium by broth microdilution assay; assay type: functional; conditions: time 18-20 hrs
[2] = test system: Pseudomonas aeruginosa; test: Antibacterial activity against multi-drug resistant Pseudomonas aeruginosa clinical isolate 1167 assessed as inhibition of bacterial growth by measuring minimum inhibitory concentration incubated for 18 to 20 hrs in presence of M9 medium by broth microdilution assay; assay type: functional; conditions: time 18-20 hrs
[3] = test system: Pseudomonas aeruginosa; test: Antibacterial activity against Pseudomonas aeruginosa PAO1 assessed as inhibition of bacterial growth incubated for 18 to 20 hrs in presence of MH medium by broth microdilution assay; assay type: functional, organism-based
[4] = test system: Escherichia coli; test: Antibacterial activity against Escherichia coli ATCC 25922 assessed as inhibition of bacterial growth by measuring minimum inhibitory concentration incubated for 18 to 20 hrs in presence of M9 medium by broth microdilution assay; assay type: functional; conditions: time 18-20 hrs
[5] = test system: Pseudomonas aeruginosa; test: Antibacterial activity against Pseudomonas aeruginosa PAO1 assessed as inhibition of bacterial growth incubated for 18 to 20 hrs in presence of M9 and FeCl3 medium by broth microdilution assay; assay type: functional, organism-based
[6] = test system: Pseudomonas aeruginosa; test: Antibacterial activity against Pseudomonas aeruginosa PAO1 assessed as inhibition of bacterial growth by measuring minimum inhibitory concentration incubated for 18 to 20 hrs in presence of MH medium by broth microdilution assay; assay type: functional; conditions: time 18-20 hrs
[7] = test system: Pseudomonas aeruginosa; test: Antibacterial activity against multi-drug resistant Pseudomonas aeruginosa clinical isolate 1129 assessed as inhibition of bacterial growth by measuring minimum inhibitory concentration incubated for 18 to 20 hrs in presence of M9 medium by broth microdilution assay; assay type: functional; conditions: time 18-20 hrs
[8] = test system: Pseudomonas aeruginosa; test: Antibacterial activity against Pseudomonas aeruginosa PAO1 assessed as inhibition of bacterial growth by measuring minimum inhibitory concentration incubated for 18 to 20 hrs in presence of M9 and FeCl3 medium by broth microdilution assay; assay type: functional; conditions: time 18-20 hrs
[9] = test system: Pseudomonas aeruginosa; test: Antibacterial activity against Pseudomonas aeruginosa PAO1 assessed as inhibition of bacterial growth incubated for 18 to 20 hrs in presence of M9 medium by broth microdilution assay; assay type: functional, organism-based
[10] = test system: Klebsiella pneumoniae; test: Antibacterial activity against Klebsiella pneumoniae ATCC 700603 assessed as inhibition of bacterial growth by measuring minimum inhibitory concentration incubated for 18 to 20 hrs in presence of M9 medium by broth microdilution assay; assay type: functional; conditions: time 18-20 hrs
[11] = test system: Pseudomonas aeruginosa; test: Antibacterial activity against Pseudomonas aeruginosa ATCC27853 assessed as inhibition of bacterial growth by measuring minimum inhibitory concentration incubated for 18 to 20 hrs in presence of M9 medium by broth microdilution assay; assay type: functional; conditions: time 18-20 hrs
[12] = test system: Staphylococcus aureus; test: Antibacterial activity against Staphylococcus aureus ATCC 25923 assessed as inhibition of bacterial growth by measuring minimum inhibitory concentration incubated for 18 to 20 hrs in presence of M9 medium by broth microdilution assay; assay type: functional; conditions: time 18-20 hrs
[13] = test system: Pseudomonas aeruginosa; test: Antibacterial activity against multi-drug resistant Pseudomonas aeruginosa clinical isolate FB assessed as inhibition of bacterial growth by measuring minimum inhibitory concentration incubated for 18 to 20 hrs in presence of M9 medium by broth microdilution assay; assay type: functional; conditions: time 18-20 hrs
[14] = test system: Pseudomonas aeruginosa; test: Antibacterial activity against Pseudomonas aeruginosa PAO1 assessed as inhibition of bacterial growth by measuring minimum inhibitory concentration incubated for 18 to 20 hrs in presence of M9 medium by broth microdilution assay; assay type: functional; conditions: time 18-20 hrs
[15] = test system: Staphylococcus aureus; test: Bactericidal activity against Staphylococcus aureus ATCC 25923 assessed as inhibition of bacterial growth at 2 times MIC incubated upto 24 hrs by time-kill based microplate reader assay; assay type: functional, organism-based
[16] = test system: Pseudomonas aeruginosa; test: Antibacterial activity against Pseudomonas aeruginosa PAO1 infected in Caenorhabditis elegans assessed as increase in worm survival rate at 32 ug/ml incubated for 60 hrs; assay type: functional, organism-based; conditions: dose 32.0 µg/ml
[17] = test system: Vero; test: Cytotoxicity against green monkey Vero cells assessed as reduction in cell viability at 1 to 32 ug/ml incubated for 24 hrs by MTT assay; assay type: toxicity, cell-based; conditions: chlorocebus sabaeus, dose 1-32 µg/ml
[18] = test system: Pseudomonas aeruginosa; test: Antibacterial activity against Pseudomonas aeruginosa PAO1 assessed as inhibition of bacterial growth at 32 ug/ml incubated upto 24 hrs by time-kill based microplate reader assay; assay type: functional, organism-based; conditions: dose 32.0 µg/ml
[19] = test system: Staphylococcus aureus; test: Antibacterial activity against Staphylococcus aureus ATCC 25923 assessed as inhibition of bacterial growth incubated for 18 to 20 hrs in presence of M9 medium by broth microdilution assay; assay type: functional, organism-based; conditions: time 18-20 hrs

Structure (SMILES) | MIC [1] | MIC [2] | IC50 [3] | MIC [4] | IC50 [5] | MIC [6] | MIC [7] | MIC [8] | IC50 [9] | MIC [10] | MIC [11] | MIC [12] | MIC [13] | MIC [14] | Activity [15] | Activity [16] | Activity [17] | Activity [18] | Activity [19]
CCn1cc(C(=O)O)c(=O)c2cc(F)c(N3CCNCC3)cc21 [NORFLOXACIN] | 0.5 µg/mL | 0.25 µg/mL | 0.03 µg/mL | 0.015 µg/mL | 0.07 µg/mL | 0.125 µg/mL | 1 µg/mL | 0.25 µg/mL | 0.08 µg/mL | 2 µg/mL | 1 µg/mL | 2 µg/mL | 0.5 µg/mL | 0.25 µg/mL | – | – | – | – | –
CC(C)=CCc1c(O)ccc(C(=O)/C=C/c2ccc(O)cc2)c1O [ISOBAVACHALCONE] | > 128 µg/mL | > 128 µg/mL | > 128 µg/mL | > 128 µg/mL | > 128 µg/mL | > 128 µg/mL | > 128 µg/mL | > 128 µg/mL | > 128 µg/mL | > 128 µg/mL | > 128 µg/mL | 4 µg/mL | > 128 µg/mL | > 128 µg/mL | Active | inactive | Non-Toxic | inactive | –
CC(C)=CCc1c(O)ccc(C(=O)/C=C/c2ccc(OCCCCCCOCc3c(O)c(=O)cc(C)n3C)cc2)c1O | 8 µg/mL | 16 µg/mL | 10.2 µg/mL | > 128 µg/mL | > 128 µg/mL | > 128 µg/mL | 8 µg/mL | > 128 µg/mL | 7.87 µg/mL | > 128 µg/mL | 32 µg/mL | > 128 µg/mL | 32 µg/mL | 32 µg/mL | – | – | – | – | inactive
CC1(C)S[C@@H]2[C@H](NC(=O)[C@H](N)c3ccccc3)C(=O)N2[C@H]1C(=O)O [AMPICILLIN] | > 128 µg/mL | > 128 µg/mL | 12.6 µg/mL | 8 µg/mL | 6.06 µg/mL | 32 µg/mL | > 128 µg/mL | 32 µg/mL | 12.7 µg/mL | > 128 µg/mL | > 128 µg/mL | 0.25 µg/mL | > 128 µg/mL | 32 µg/mL | – | – | – | – | –
CC(C)=CCc1c(OCCCCCC(=O)NCc2cc(=O)c(O)cn2C)ccc(C(=O)/C=C/c2ccc(O)cc2)c1O | 8 µg/mL | 8 µg/mL | 19.7 µg/mL | > 128 µg/mL | > 128 µg/mL | 32 µg/mL | 16 µg/mL | > 128 µg/mL | 1.72 µg/mL | > 128 µg/mL | 32 µg/mL | 32 µg/mL | 16 µg/mL | 16 µg/mL | – | – | – | – | –
CC(C)=CCc1c(O)ccc(C(=O)/C=C/c2ccc(OCCCOCc3c(O)c(=O)cc(C)n3C)cc2)c1O | 16 µg/mL | 8 µg/mL | 16.2 µg/mL | > 128 µg/mL | > 128 µg/mL | 32 µg/mL | 16 µg/mL | > 128 µg/mL | 3.27 µg/mL | > 128 µg/mL | 32 µg/mL | 32 µg/mL | 16 µg/mL | 16 µg/mL | – | – | – | – | –
CC(C)=CCc1c(OCCCCn2cc(COCc3c(O)c(=O)cc(C)n3C)nn2)ccc(C(=O)/C=C/c2ccc(O)cc2)c1O | 8 µg/mL | 32 µg/mL | 29.4 µg/mL | > 128 µg/mL | > 128 µg/mL | 64 µg/mL | 16 µg/mL | > 128 µg/mL | 3.64 µg/mL | > 128 µg/mL | 32 µg/mL | 32 µg/mL | 16 µg/mL | 32 µg/mL | – | – | – | – | –
CC(C)=CCc1c(O)ccc(C(=O)/C=C/c2ccc(OCCCCCCOCc3cc(=O)c(O)cn3C)cc2)c1O | 8 µg/mL | 8 µg/mL | 7.31 µg/mL | > 128 µg/mL | > 128 µg/mL | 16 µg/mL | 8 µg/mL | > 128 µg/mL | 3.39 µg/mL | > 128 µg/mL | 32 µg/mL | > 128 µg/mL | 16 µg/mL | 16 µg/mL | – | – | – | – | inactive
CC(C)=CCc1c(OCCCCn2cc(COCc3cc(=O)c(O)cn3C)nn2)ccc(C(=O)/C=C/c2ccc(O)cc2)c1O | 8 µg/mL | 16 µg/mL | 17.8 µg/mL | > 128 µg/mL | > 128 µg/mL | 32 µg/mL | 16 µg/mL | > 128 µg/mL | 2.55 µg/mL | > 128 µg/mL | 32 µg/mL | 32 µg/mL | 16 µg/mL | 16 µg/mL | – | – | – | – | –
CC(C)=CCc1c(O)ccc(C(=O)/C=C/c2ccc(OCCCCCC(=O)NCc3cc(=O)c(O)cn3C)cc2)c1O | 16 µg/mL | 32 µg/mL | 19.4 µg/mL | > 128 µg/mL | > 128 µg/mL | 32 µg/mL | 32 µg/mL | > 128 µg/mL | 1.46 µg/mL | > 128 µg/mL | 32 µg/mL | 32 µg/mL | 16 µg/mL | 16 µg/mL | – | – | – | – | –
